Reference: US7951798B2, “Polymorphs of olanzapine hydrochloride” (Egis Hyogyszergyar Nyrt., priority 2003, dated 2011)

Assay: solubility in water (analytical studies)
Assay type: physicochemical
Conditions: compared with the new polymorphic hydrochloride salts

Q: Which solubility in water does the source give for `Cc1cc2c(s1)Nc1ccccc1N=C2N1CCN(C)CC1` [olanzapine base, 2-methyl-4-(4-methylpiperazin-1-yl)-10H-thieno-[2,3-b][1,5]-benzodiazepine] here?
A: The solubility in water was “significantly lower”.
